Values after ≈ are worked out from the molar mass of the structure shown. Values joined by “and” are separate entries in the source; they are usually repeats but may differ in a detail not shown here. Equal values may be shown once. Read-outs that look alike come from different tables or passages of the source.
Legend:
PGP = molecular target: T1, PGP (Mus musculus, UniProt Q8CHP8); experiment: Steady state kinetics of PG dephosphorylation in presence of CP1-3
T1 sequence (Q8CHP8 1-321): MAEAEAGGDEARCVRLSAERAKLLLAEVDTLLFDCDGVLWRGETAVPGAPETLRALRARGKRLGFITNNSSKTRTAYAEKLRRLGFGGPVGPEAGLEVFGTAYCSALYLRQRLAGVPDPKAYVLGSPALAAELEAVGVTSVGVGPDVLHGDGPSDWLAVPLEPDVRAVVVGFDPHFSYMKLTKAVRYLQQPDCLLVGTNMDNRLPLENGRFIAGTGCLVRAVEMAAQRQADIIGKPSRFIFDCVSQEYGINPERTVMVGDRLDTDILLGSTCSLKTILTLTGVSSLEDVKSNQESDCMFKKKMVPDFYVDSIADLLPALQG

PGP^WT = molecular target: T2, PGP^WT (Mus musculus, UniProt Q8CHP8); experiment: Differential scanning fluorimetry (Thermofluor); format: binding
T2 construct: His6 (N, cleaved yes); made in house; host or cells: Escherichia coli BL21 (DE3), pETM11, co-expressed with groES-groEL-tig
T2 sequence (Q8CHP8 1-321): T1 sequence (Q8CHP8 1-321)

murine PDXP/PGP hybrid = molecular target: T3, murine PDXP/PGP hybrid (Mus musculus, UniProt P60487+Q8CHP8); experiment: PG dephosphorylation by PDXP/PGP hybrid protein; format: biochemical
T3 construct: consisting of the PGP cap domain (amino acids 114–233) fused to the PDXP core domain; His6 (N, cleaved yes); made in house; host or cells: Escherichia coli BL21 (DE3), pETM11
T3 sequence (P60487 1-100): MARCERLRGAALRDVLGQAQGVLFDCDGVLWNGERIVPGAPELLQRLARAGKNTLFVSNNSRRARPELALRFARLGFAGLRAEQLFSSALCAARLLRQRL
T3 sequence (Q8CHP8 114-233): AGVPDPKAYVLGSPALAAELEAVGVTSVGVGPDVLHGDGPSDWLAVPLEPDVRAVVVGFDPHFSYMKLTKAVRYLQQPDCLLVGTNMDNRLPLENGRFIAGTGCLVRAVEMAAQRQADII
T3 sequence (P60487 208-292): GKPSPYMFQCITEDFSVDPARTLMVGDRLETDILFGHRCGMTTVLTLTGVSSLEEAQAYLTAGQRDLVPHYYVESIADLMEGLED
Procedure: After centrifugation, cells were resuspended in TNM-2 (100 mM triethanolamine, 500 mM NaCl, 20 mM imidazole, 5 mM MgCl2; pH 7.4). Cleared supernatants were loaded on a HisTrap HP nickel sepharose column in TNM-3 (50 mM triethanolamine, 500 mM NaCl, 20 mM imidazole, 5 mM MgCl2; pH 7.4), and His6-tagged proteins were eluted using a linear gradient of up to 50% TNM-4 (50 mM triethanolamine; 250 mM NaCl; 500 mM imidazole; 5 mM MgCl2; pH 7.4). Peak fractions were pooled, the His6-tag was cleaved, and untagged PDXP or PDXP/PGP was isolated, concentrated and further purified by size exclusion chromatography in TNM-5 (50 mM triethanolamine; 250 mM NaCl; 5 mM MgCl2; pH 7.4). […] Data were analyzed with GraphPad Prism 7.04.

murine PGP [1] = molecular target: T4, murine PGP (Mus musculus, UniProt Q8CHP8); experiment: IC50 determination, murine PGP, pNPP dephosphorylation
T4 sequence (Q8CHP8 1-321): T1 sequence (Q8CHP8 1-321)

murine PDXP = molecular target: T5, murine PDXP (Mus musculus, UniProt P60487); experiment: PDXP activity towards pyridoxal 5'-phosphate (PLP); details: phosphatase PDXP; species M.m.; substrate PLP; n.s. = no significant inhibition detectable
T5 sequence (P60487 1-292): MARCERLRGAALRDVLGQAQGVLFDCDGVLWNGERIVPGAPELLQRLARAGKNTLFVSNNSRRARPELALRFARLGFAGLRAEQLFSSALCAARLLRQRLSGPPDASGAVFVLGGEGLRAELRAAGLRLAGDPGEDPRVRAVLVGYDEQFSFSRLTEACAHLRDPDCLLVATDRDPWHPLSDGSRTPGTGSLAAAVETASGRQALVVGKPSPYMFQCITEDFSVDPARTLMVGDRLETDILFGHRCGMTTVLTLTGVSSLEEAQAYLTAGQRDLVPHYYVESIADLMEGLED

murine PGP [2] = molecular target: T4, murine PGP; experiment: biochemical
physchem = details: organic solvent or mixture
[3] = PG dephosphorylation, increasing CP concentrations

## COc1ccc(C(=O)Nc2ccc(Cc3ccc(NC(=O)c4ccc(OC)c(OC)c4)c(C(=O)O)c3)cc2C(=O)O)cc1OC [CP2]
PGP
  mode of PGP inhibition: competitive inhibitors
PGP; 1 µM CP2, PG 25 µM
  PGP activity: 1.021 µmol Pi/min/mg and 0.7809 µmol Pi/min/mg and 1.201 µmol Pi/min/mg
PGP; 1 µM CP2, PG 50 µM
  PGP activity: 2.343 µmol Pi/min/mg and 1.682 µmol Pi/min/mg and 2.403 µmol Pi/min/mg
PGP; 1 µM CP2, PG 100 µM
  PGP activity: 4.865 µmol Pi/min/mg and 4.265 µmol Pi/min/mg and 4.986 µmol Pi/min/mg
PGP; 1 µM CP2, PG 200 µM
  PGP activity: 9.31 µmol Pi/min/mg and 8.409 µmol Pi/min/mg and 9.7309 µmol Pi/min/mg
PGP; 1 µM CP2, PG 300 µM
  PGP activity: 14.9605 µmol Pi/min/mg and 10.9951 µmol Pi/min/mg and 14.0593 µmol Pi/min/mg
PGP; 1 µM CP2, PG 400 µM
  PGP activity: 18.0247 µmol Pi/min/mg and 16.763 µmol Pi/min/mg and 17.3037 µmol Pi/min/mg
PGP; 1 µM CP2, PG 500 µM
  PGP activity: 19.8272 µmol Pi/min/mg and 20.5481 µmol Pi/min/mg and 19.4667 µmol Pi/min/mg
PGP; 1 µM CP2, PG 600 µM
  PGP activity: 21.8099 µmol Pi/min/mg and 21.6296 µmol Pi/min/mg
PGP; 1 µM CP2, PG 700 µM
  PGP activity: 22.7111 µmol Pi/min/mg and 24.1531 µmol Pi/min/mg and 23.6123 µmol Pi/min/mg
PGP; 1 µM CP2, PG 800 µM
  PGP activity: 21.8099 µmol Pi/min/mg and 23.0716 µmol Pi/min/mg and 24.8741 µmol Pi/min/mg
PGP; 2 µM CP2, PG 25 µM
  PGP activity: 0.7809 µmol Pi/min/mg and 0.7208 µmol Pi/min/mg and 0.9611 µmol Pi/min/mg
PGP; 2 µM CP2, PG 50 µM
  PGP activity: 1.081 µmol Pi/min/mg and 1.682 µmol Pi/min/mg and 1.982 µmol Pi/min/mg
PGP; 2 µM CP2, PG 100 µM
  PGP activity: 2.9433 µmol Pi/min/mg and 3.424 µmol Pi/min/mg and 3.784 µmol Pi/min/mg
PGP; 2 µM CP2, PG 200 µM
  PGP activity: 6.247 µmol Pi/min/mg and 7.088 µmol Pi/min/mg and 7.028 µmol Pi/min/mg
PGP; 2 µM CP2, PG 300 µM
  PGP activity: 7.39 µmol Pi/min/mg and 11.3555 µmol Pi/min/mg and 12.0765 µmol Pi/min/mg
PGP; 2 µM CP2, PG 400 µM
  PGP activity: 12.7975 µmol Pi/min/mg and 13.6988 µmol Pi/min/mg and 14.4198 µmol Pi/min/mg
PGP; 2 µM CP2, PG 500 µM
  PGP activity: 16.763 µmol Pi/min/mg and 16.4025 µmol Pi/min/mg
PGP; 2 µM CP2, PG 600 µM
  PGP activity: 17.8444 µmol Pi/min/mg and 17.3037 µmol Pi/min/mg and 17.6642 µmol Pi/min/mg
PGP; 2 µM CP2, PG 700 µM
  PGP activity: 19.2864 µmol Pi/min/mg and 19.1062 µmol Pi/min/mg
PGP; 2 µM CP2, PG 800 µM
  PGP activity: 20.3679 µmol Pi/min/mg and 20.7284 µmol Pi/min/mg and 19.2864 µmol Pi/min/mg
PGP; 4 µM CP2, PG 50 µM
  PGP activity: 1.502 µmol Pi/min/mg and 0.7809 µmol Pi/min/mg and 1.321 µmol Pi/min/mg
PGP; 4 µM CP2, PG 100 µM
  PGP activity: 2.523 µmol Pi/min/mg and 1.742 µmol Pi/min/mg and 2.222 µmol Pi/min/mg
PGP; 4 µM CP2, PG 200 µM
  PGP activity: 4.745 µmol Pi/min/mg and 4.565 µmol Pi/min/mg
PGP; 4 µM CP2, PG 300 µM
  PGP activity: 8.4716 µmol Pi/min/mg and 6.669 µmol Pi/min/mg and 5.7679 µmol Pi/min/mg
PGP; 4 µM CP2, PG 400 µM
  PGP activity: 10.8148 µmol Pi/min/mg and 9.012 µmol Pi/min/mg
PGP; 4 µM CP2, PG 500 µM
  PGP activity: 11.1753 µmol Pi/min/mg and 11.8963 µmol Pi/min/mg and 10.8148 µmol Pi/min/mg
PGP; 4 µM CP2, PG 600 µM
  PGP activity: 12.437 µmol Pi/min/mg and 12.9778 µmol Pi/min/mg
PGP; 4 µM CP2, PG 700 µM
  PGP activity: 13.5185 µmol Pi/min/mg and 14.0593 µmol Pi/min/mg and 12.9778 µmol Pi/min/mg
PGP; 4 µM CP2, PG 800 µM
  PGP activity: 13.3383 µmol Pi/min/mg and 13.879 µmol Pi/min/mg and 14.6 µmol Pi/min/mg
PGP; CP 1.0 µM
  vmax: 49.7 ± 4.0 µmol/min/mg
PGP; CP 2.0 µM
  vmax: 51.9 ± 5.9 µmol/min/mg
PGP; CP 4.0 µM
  vmax: 36.9 ± 4.8 µmol/min/mg
PGP; [3]
  effect on vmax (reduction): without affecting vmax
  increase of KM: ~ 3 fold
PGP^WT; Inhibitor 0.146484 µM
  TM: 66.4 °C
PGP^WT; Inhibitor 0.292969 µM
  TM: 66.5 °C
PGP^WT; Inhibitor 0.585938 µM
  TM: 66.5 °C
PGP^WT; Inhibitor 1.17188 µM
  TM: 66.5 °C
PGP^WT; Inhibitor 2.34375 µM
  TM: 66.6 °C
PGP^WT; Inhibitor 4.6875 µM
  TM: 66.8 °C
PGP^WT; Inhibitor 9.375 µM
  TM: 67.7 °C
PGP^WT; Inhibitor 18.75 µM
  TM: 68.2 °C
PGP^WT; Inhibitor 37.5 µM
  TM: 68.6 °C
PGP^WT; Inhibitor 75 µM
  TM: 68.6 °C
PGP^WT; Inhibitor 150 µM
  TM: 67.9 °C
PGP^WT; from 66.4 °C (control conditions)
  increase in the maximal PGP melting temperature: 2.2 °
Murine PDXP/PGP hybrid; activity, control = 100, CP log[M] -4.19382
  remaining activity at 64 µM: 17.6%
Murine PDXP/PGP hybrid; activity, control = 100, CP log[M] -4.49485
  remaining activity at 32 µM: 16%
Murine PDXP/PGP hybrid; activity, control = 100, CP log[M] -4.79588
  remaining activity at 16 µM: 23.7%
Murine PDXP/PGP hybrid; activity, control = 100, CP log[M] -5.39794
  remaining activity at 4 µM: 48.1%
Murine PDXP/PGP hybrid; activity, control = 100, CP log[M] -5.69897
  remaining activity at 2 µM: 55.7%
Murine PDXP/PGP hybrid; activity, control = 100, CP log[M] -6
  remaining activity at 1 µM: 80.9%
Murine PDXP/PGP hybrid; activity, control = 100, CP log[M] -6.30103
  remaining activity at 0.5 µM: 90.8%
Murine PDXP/PGP hybrid; activity, control = 100, CP log[M] -6.60206
  remaining activity at […]: 93.9%
Murine PDXP/PGP hybrid; activity, control = 100, CP log[M] -6.90309
  remaining activity at 0.125 µM: 94.7%
Murine PDXP/PGP hybrid; activity, control = 100, CP log[M] -7.20412
  remaining activity at 0.0625 µM: 87.8%
Murine PDXP/PGP hybrid; activity, control = 100, CP log[M] -7.80618
  remaining activity at 0.015625 µM: 101%
Murine PDXP/PGP hybrid; phosphatase PDXP/PGP, species M.m., substrate PG
  IC50: 2.57 ± 0.23 µM
Murine PGP [1]
  IC50: 4.76 ± 1.19 µM
Murine PGP [1]; read-out: M.m PGP on pNPP, activity, control = 100.00, CP log[M] -4.30103
  remaining activity at 50 µM: 28.4%
Murine PGP [1]; read-out: M.m PGP on pNPP, activity, control = 100.00, CP log[M] -4.60206
  remaining activity at 25 µM: 32.2%
Murine PGP [1]; read-out: M.m PGP on pNPP, activity, control = 100.00, CP log[M] -5
  remaining activity at 10 µM: 43.5%
Murine PGP [1]; read-out: M.m PGP on pNPP, activity, control = 100.00, CP log[M] -5.30103
  remaining activity at 5 µM: 58.6%
Murine PGP [1]; read-out: M.m PGP on pNPP, activity, control = 100.00, CP log[M] -5.60206
  remaining activity at […]: 63.7%
Murine PGP [1]; read-out: M.m PGP on pNPP, activity, control = 100.00, CP log[M] -6
  remaining activity at 1 µM: 94.7%
Murine PGP [1]; read-out: M.m PGP on pNPP, activity, control = 100.00, CP log[M] -6.30103
  remaining activity at 0.5 µM: 85.5%
Murine PGP [1]; read-out: M.m PGP on pNPP, activity, control = 100.00, CP log[M] -6.60206
  remaining activity at […]: 93.2%
Murine PGP [1]; read-out: M.m PGP on pNPP, activity, control = 100.00, CP log[M] -6.90309
  remaining activity at 0.125 µM: 91.7%
Murine PGP [1]; read-out: M.m PGP on pNPP, activity, control = 100.00, CP log[M] -7.20412
  remaining activity at 0.0625 µM: 105%
Murine PGP [1]; read-out: M.m PGP on pNPP, activity, control = 100.00, CP log[M] -7.50515
  remaining activity at 0.03125 µM: 94%
Murine PDXP
  IC50: n.s.
Murine PGP [2]
  IC50: 1.58 µM and 0.7 µM
physchem
  solubility: 15 mM (≈ 9220 µg/mL)

— paper PMC9652372, “Glycolytic flux control by drugging phosphoglycolate phosphatase” (Nature Communications, 2022)
